Common to all, as to assay type: biochemical
For one assay, the target named is T1, Lck (Homo sapiens, UniProt P06239).
T1 construct: Kinases are expressed as either kinase domains or full length constructs; made in house
Nature of the assay: Kinase inhibition assay (33P transfer), Lck. The conditions noted are these: Table 3; read-out: Lck-1. The method, boiled down: (§1)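 Enzyme activity is taken as the amount of 33PO4 moved from ATP onto poly(Glu, Tyr) 4:1 or poly(Arg, Ser) 3:1 fixed to the plate surface. Unbound label is removed with 0.5% phosphoric acid before scintillation counting.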

The next assay concerns the target T2, Src (Homo sapiens, UniProt P12931).
T2 construct: Kinases are expressed as either kinase domains or full length constructs; made in house
Description: Kinase inhibition assay (33P transfer), Src. The conditions noted are these: Table 6, Src-1 kinase inhibition class. The method, boiled down: (§2)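 Using immobilised substrate copolymers (poly(Glu,Tyr) 4:1; poly(Arg,Ser) 3:1) and [33P]ATP, purified fusion kinases were allowed to react; plates were then rinsed in 0.5% phosphoric acid and counted in a scintillation detector. Half-maximal inhibition of label transfer defines IC50.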

In the next assay the target is T3, Fyn (Homo sapiens, UniProt P06241).
T3 construct: Kinases are expressed as either kinase domains or full length constructs; made in house
Description: Kinase inhibition assay (33P transfer), Fyn. The conditions noted are these: read-out: Fyn-1. In outline: as §2

Another assay deals with T4, Itk (Homo sapiens, UniProt Q08881).
T4 construct: Kinases are expressed as either kinase domains or full length constructs; made in house
T4 sequence (Q08881 1-620): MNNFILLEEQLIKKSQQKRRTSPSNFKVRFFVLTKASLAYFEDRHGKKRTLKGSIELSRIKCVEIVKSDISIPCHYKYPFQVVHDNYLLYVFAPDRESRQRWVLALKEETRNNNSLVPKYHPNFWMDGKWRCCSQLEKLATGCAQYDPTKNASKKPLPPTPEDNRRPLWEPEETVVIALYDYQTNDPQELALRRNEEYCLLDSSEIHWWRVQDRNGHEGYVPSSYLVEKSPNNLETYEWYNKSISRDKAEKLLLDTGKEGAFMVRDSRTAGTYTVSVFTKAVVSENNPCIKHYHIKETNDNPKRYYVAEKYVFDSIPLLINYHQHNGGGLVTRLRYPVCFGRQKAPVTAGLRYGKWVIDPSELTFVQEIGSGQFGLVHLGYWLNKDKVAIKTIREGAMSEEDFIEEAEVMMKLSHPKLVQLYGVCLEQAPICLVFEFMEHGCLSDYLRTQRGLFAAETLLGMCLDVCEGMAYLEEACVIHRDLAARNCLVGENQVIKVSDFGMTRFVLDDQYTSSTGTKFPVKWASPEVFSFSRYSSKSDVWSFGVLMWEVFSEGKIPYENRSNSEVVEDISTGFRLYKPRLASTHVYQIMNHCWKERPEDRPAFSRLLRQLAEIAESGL
Nature of the assay: Kinase inhibition assay (33P transfer), Itk. The conditions noted are these: Table 3; read-out: Itk-1. In outline: as §2

For another assay, the target named is T5, EGFR (Homo sapiens, UniProt P00533).
T5 construct: Kinases are expressed as either kinase domains or full length constructs; made in house
Nature of the assay: Kinase inhibition assay (33P transfer), EGFR. The conditions noted are these: Table 2, kinase inhibition class; read-out: EGFR-1. In outline: as §2

The target of a further assay is T6, Kdr (Homo sapiens, UniProt P35968).
T6 construct: Kinases are expressed as either kinase domains or full length constructs; made in house
Description: Kinase inhibition assay (33P transfer), Kdr. The conditions noted are these: Table 3; read-out: KDR-1. The method, boiled down:
as §1

In another assay the target is T7, Flt-1 (Homo sapiens, UniProt P17948).
T7 construct: Kinases are expressed as either kinase domains or full length constructs; made in house
Nature of the assay: Kinase inhibition assay (33P transfer), Flt-1. The method, boiled down:
as §2

A further assay deals with T8, c-Met (Homo sapiens, UniProt P08581).
T8 construct: Kinases are expressed as either kinase domains or full length constructs; made in house
Description: Kinase inhibition assay (33P transfer), c-Met. The conditions noted are these: Table 2, kinase inhibition class; read-out: Met-1. The method, boiled down: as §2

In a further assay the target is T9, AKT (Homo sapiens, UniProt Q9Y243).
T9 construct: Kinases are expressed as either kinase domains or full length constructs; made in house
Nature of the assay: Kinase inhibition assay (33P transfer), AKT. The conditions noted are these: Table 2, kinase inhibition class; read-out: AKT3-1. In outline: as §1

In another assay the target is T10, IGFR-1 (Homo sapiens, UniProt P08069).
T10 construct: Kinases are expressed as either kinase domains or full length constructs; made in house
Description: Kinase inhibition assay (33P transfer), IGFR-1. The conditions noted are these: Table 2, kinase inhibition class.

The next assay addresses T11, PDGFRB (Homo sapiens, UniProt P09619).
T11 construct: Kinases are expressed as either kinase domains or full length constructs; made in house
Description: Kinase inhibition assay (33P transfer), PDGFRB. The conditions noted are these: read-out: PDGFRB-1.

The target in a further assay is T12, Hck-1 (Homo sapiens, UniProt P08631).
T12 construct: Kinases are expressed as either kinase domains or full length constructs; made in house
Description: Kinase inhibition assay (33P transfer), Hck. The conditions noted are these: Table 6, Hck-1 kinase inhibition class.

The next assay has as its target T13, FGFR1 (Homo sapiens, UniProt P11362).
T13 construct: Kinases are expressed as either kinase domains or full length constructs; made in house
Nature of the assay: Kinase inhibition assay (33P transfer), FGFR1. The conditions noted are these: read-out: FGFR1-1.

The structures appear in SMILES notation. Where only a bound is given, the exact number is not on record here.

T2 sequence (P12931 whole entry, species assumed, the tested form may be a part): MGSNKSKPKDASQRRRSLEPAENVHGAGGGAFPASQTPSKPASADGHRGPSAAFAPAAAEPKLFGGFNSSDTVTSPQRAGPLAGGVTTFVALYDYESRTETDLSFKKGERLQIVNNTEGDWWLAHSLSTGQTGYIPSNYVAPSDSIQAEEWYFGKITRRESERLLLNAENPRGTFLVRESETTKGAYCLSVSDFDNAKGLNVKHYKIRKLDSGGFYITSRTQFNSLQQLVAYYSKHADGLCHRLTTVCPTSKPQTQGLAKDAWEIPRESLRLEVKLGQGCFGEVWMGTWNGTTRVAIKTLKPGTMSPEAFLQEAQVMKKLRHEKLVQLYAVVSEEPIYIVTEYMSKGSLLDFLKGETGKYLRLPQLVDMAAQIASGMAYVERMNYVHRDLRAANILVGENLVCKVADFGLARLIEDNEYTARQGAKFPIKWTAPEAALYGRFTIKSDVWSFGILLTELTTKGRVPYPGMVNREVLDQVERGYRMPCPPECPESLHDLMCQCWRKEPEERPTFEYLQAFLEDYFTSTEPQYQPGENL
T1 sequence (P06239 whole entry, species assumed, the tested form may be a part): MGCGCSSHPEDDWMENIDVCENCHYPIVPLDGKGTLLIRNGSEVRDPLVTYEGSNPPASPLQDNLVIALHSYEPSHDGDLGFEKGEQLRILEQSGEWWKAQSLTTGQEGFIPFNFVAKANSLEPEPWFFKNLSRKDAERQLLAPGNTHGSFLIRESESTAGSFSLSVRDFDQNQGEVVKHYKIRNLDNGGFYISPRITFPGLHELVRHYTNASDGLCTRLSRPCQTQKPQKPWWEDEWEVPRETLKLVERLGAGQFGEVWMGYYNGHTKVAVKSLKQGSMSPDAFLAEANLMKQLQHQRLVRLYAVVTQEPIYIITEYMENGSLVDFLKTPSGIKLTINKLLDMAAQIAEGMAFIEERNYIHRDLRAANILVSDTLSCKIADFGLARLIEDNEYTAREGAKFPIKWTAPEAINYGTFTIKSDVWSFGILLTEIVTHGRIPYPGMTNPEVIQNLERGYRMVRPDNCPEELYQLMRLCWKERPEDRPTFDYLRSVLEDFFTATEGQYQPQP
T9 sequence (Q9Y243 whole entry, the tested form may be a part): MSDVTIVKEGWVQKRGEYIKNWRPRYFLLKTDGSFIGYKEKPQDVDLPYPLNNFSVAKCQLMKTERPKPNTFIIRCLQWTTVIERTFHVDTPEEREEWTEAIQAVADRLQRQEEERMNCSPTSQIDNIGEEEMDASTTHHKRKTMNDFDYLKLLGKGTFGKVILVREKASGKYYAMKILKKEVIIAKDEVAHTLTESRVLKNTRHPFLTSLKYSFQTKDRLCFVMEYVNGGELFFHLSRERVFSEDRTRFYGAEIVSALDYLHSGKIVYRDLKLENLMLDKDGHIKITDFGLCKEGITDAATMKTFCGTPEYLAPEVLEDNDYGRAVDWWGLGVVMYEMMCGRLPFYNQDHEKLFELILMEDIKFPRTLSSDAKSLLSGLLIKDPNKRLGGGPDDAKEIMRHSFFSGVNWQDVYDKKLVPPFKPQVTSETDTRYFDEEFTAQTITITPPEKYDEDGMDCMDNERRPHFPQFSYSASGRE
T12 sequence (P08631 whole entry, the tested form may be a part): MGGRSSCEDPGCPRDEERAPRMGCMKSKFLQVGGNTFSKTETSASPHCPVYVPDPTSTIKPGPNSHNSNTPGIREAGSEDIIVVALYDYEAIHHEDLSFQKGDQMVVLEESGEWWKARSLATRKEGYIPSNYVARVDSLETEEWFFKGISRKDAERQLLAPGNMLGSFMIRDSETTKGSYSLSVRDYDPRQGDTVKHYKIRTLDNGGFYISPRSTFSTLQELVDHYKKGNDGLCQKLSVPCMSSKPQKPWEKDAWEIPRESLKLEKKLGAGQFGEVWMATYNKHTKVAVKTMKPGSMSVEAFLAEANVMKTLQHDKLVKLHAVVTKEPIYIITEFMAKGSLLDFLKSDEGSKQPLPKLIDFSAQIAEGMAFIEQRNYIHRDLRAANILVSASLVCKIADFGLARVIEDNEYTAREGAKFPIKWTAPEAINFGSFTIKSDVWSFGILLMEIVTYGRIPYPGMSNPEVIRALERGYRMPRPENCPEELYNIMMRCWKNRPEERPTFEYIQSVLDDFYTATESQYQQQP
T11 sequence (P09619 33-1106, species assumed): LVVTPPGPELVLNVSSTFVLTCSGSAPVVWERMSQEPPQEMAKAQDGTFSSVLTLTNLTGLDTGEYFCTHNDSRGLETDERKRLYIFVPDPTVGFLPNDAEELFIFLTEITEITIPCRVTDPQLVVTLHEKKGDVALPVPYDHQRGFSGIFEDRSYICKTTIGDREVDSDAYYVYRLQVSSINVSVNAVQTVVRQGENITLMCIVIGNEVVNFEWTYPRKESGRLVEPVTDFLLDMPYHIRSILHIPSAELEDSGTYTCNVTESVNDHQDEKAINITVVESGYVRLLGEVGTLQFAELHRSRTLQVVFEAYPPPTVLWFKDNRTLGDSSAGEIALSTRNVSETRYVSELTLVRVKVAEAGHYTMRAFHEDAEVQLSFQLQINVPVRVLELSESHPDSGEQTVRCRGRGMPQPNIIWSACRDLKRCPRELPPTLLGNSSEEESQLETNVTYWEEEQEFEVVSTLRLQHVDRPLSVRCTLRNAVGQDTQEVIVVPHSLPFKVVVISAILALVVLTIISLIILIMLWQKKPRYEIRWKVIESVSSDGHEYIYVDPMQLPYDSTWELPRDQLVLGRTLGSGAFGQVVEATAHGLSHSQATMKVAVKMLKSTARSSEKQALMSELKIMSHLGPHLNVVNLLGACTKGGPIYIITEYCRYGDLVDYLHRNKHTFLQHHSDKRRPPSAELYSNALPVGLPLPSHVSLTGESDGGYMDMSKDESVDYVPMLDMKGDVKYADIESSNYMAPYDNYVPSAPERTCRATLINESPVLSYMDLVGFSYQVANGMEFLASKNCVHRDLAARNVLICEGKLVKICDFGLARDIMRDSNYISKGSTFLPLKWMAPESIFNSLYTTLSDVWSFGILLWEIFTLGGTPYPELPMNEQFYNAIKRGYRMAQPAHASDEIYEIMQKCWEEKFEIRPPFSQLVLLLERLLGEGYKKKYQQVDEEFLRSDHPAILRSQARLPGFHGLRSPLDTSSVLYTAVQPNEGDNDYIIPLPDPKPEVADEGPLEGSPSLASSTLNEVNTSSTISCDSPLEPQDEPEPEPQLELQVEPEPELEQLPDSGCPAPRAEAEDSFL
T3 sequence (P06241 whole entry, species assumed, the tested form may be a part): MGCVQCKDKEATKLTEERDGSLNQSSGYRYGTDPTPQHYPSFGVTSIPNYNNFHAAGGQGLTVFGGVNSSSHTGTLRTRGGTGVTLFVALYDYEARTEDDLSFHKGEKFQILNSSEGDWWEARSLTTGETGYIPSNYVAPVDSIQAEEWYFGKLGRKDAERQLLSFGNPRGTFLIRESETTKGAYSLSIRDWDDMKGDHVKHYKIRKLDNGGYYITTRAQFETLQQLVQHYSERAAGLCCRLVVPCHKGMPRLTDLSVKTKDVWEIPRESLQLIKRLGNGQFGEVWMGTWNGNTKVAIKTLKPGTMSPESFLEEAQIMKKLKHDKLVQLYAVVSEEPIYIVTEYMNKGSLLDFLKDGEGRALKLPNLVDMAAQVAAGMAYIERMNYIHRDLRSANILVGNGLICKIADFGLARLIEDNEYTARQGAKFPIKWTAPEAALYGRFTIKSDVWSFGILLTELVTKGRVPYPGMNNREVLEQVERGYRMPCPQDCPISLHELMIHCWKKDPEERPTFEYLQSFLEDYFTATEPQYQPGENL
T6 sequence (P35968 20-1356, species assumed): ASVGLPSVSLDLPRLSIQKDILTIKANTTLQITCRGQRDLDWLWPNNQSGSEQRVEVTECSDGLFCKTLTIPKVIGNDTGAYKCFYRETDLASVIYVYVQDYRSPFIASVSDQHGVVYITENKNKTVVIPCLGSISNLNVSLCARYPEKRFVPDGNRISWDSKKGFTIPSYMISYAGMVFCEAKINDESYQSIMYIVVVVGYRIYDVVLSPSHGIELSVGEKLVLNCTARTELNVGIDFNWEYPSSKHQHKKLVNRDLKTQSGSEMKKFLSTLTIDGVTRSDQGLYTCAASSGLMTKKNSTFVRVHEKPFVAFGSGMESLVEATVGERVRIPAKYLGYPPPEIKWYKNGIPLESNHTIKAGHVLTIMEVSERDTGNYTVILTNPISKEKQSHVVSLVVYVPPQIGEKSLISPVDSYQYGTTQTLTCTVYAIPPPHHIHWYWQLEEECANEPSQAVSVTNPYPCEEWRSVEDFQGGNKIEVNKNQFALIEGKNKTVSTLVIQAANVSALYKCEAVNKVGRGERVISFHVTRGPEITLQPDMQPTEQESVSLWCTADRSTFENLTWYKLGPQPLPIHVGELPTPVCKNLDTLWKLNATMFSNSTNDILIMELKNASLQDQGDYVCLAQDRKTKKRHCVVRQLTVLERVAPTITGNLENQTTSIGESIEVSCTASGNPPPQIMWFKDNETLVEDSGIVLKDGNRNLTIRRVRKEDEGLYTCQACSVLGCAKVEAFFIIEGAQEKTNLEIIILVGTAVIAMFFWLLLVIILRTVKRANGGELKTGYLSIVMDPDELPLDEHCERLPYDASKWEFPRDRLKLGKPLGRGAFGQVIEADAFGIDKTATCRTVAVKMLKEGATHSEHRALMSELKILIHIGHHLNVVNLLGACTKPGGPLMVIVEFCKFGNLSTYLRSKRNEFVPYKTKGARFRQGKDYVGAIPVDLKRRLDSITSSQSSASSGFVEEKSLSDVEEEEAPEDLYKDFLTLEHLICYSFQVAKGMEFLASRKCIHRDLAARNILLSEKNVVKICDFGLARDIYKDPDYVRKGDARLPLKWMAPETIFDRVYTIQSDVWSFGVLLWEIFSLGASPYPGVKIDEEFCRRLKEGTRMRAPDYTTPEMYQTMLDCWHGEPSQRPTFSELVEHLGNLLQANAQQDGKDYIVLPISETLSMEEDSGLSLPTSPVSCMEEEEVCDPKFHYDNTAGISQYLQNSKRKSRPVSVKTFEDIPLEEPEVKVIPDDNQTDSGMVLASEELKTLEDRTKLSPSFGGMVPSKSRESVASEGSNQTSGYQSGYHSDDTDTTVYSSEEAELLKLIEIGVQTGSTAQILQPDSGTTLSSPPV

As to `COc1cc(Nc2ncnc(-n3c(Nc4ccccc4C)nc4ccccc43)n2)cc(OC)c1OC` [Compound 384], the IC50 on Lck was less than 0.827 µM; against Src, greater than 9.31 µM; on Fyn it was 0.827 to 4.96 µM; at Itk, greater than 9.31 µM; at EGFR it was 7.24 to 9.31 µM; at Kdr it was less than 0.827 µM. The IC50 at Flt-1 is greater than 9.31 µM; on c-Met, 7.24 to 9.31 µM; at AKT, greater than 9.31 µM; against IGFR-1, greater than 9.31 µM; at PDGFRB, less than 0.827 µM; against Hck-1, greater than 9.31 µM. Besides, the IC50 at FGFR1 lay in the range of 0.827 to 4.96 µM.

Consider `COc1cc(Nc2ncnc(-n3c(Nc4ccc(C)cc4)nc4ccccc43)n2)cc(OC)c1OC` [Compound 385], for which the IC50 is 0.827 to 4.96 µM at Lck; greater than 9.31 µM at Src; greater than 9.31 µM on Fyn; greater than 9.31 µM on Itk; greater than 9.31 µM at EGFR; less than 0.827 µM at Kdr. Further, the IC50 against Flt-1 is less than 0.827 µM; at c-Met it was greater than 9.31 µM; at AKT, greater than 9.31 µM; on IGFR-1, greater than 9.31 µM; on PDGFRB, less than 0.827 µM; at Hck-1 it was greater than 9.31 µM. Moreover, the IC50 on FGFR1 was less than 0.827 µM.

In the case of `COc1cc(Nc2ncnc(-n3c(Nc4cccc(C)c4)nc4ccccc43)n2)cc(OC)c1OC` [Compound 386], the IC50 is 4.96 to 7.24 µM on Lck; greater than 9.31 µM against Src; greater than 9.31 µM on Fyn; greater than 9.31 µM on Itk; greater than 9.31 µM at EGFR; less than 0.827 µM at Kdr. In addition, the IC50 is less than 0.827 µM on Flt-1; greater than 9.31 µM at c-Met; greater than 9.31 µM on AKT; greater than 9.31 µM against IGFR-1; 0.827 to 4.96 µM on PDGFRB; greater than 9.31 µM against Hck-1. Further, at FGFR1, the IC50 was less than 0.827 µM.

With `COc1cc(Nc2ncnc(-n3c(Nc4ccc(F)cc4)nc4ccccc43)n2)cc(OC)c1OC` [Compound 387], the IC50 is 0.821 to 4.92 µM on Lck; greater than 9.23 µM at Src; greater than 9.23 µM at Fyn; greater than 9.23 µM at Itk; greater than 9.23 µM at EGFR; less than 0.821 µM at Kdr. The IC50 on Flt-1 is less than 0.821 µM; on c-Met it was 7.18 to 9.23 µM; on AKT, greater than 9.23 µM; on IGFR-1, greater than 9.23 µM; on PDGFRB, less than 0.821 µM; on Hck-1 it was greater than 9.23 µM. Also, on FGFR1, the IC50 lay within 0.821 to 4.92 µM.

In the case of `COc1cc(Nc2ncnc(-n3c(Nc4ccc(C(C)C)cc4)nc4ccccc43)n2)cc(OC)c1OC` [Compound 388], the IC50 on Lck is 0.782 to 4.69 µM; at Src, greater than 8.8 µM; at Fyn, greater than 8.8 µM; on Itk it was greater than 8.8 µM; on EGFR, greater than 8.8 µM; at Kdr it was 0.782 to 4.69 µM. For the same compound, the IC50 against Flt-1 is greater than 8.8 µM; at c-Met, greater than 8.8 µM; on AKT, greater than 8.8 µM; against IGFR-1, greater than 8.8 µM; on PDGFRB, 0.782 to 4.69 µM; on Hck-1, greater than 8.8 µM. In addition, the IC50 at FGFR1 is 4.69 to 6.84 µM.

For the compound `COc1cc(Nc2ncnc(-n3c(Nc4cccc(C(=O)O)c4)nc4ccccc43)n2)cc(OC)c1OC` [Compound 390], the IC50 on Lck is less than 0.779 µM; at Src, 4.67 to 6.82 µM; on Fyn, 0.779 to 4.67 µM; on Itk it was greater than 8.76 µM; on EGFR, 6.82 to 8.76 µM; on Kdr, 0.779 to 4.67 µM. Also, the IC50 was 0.779 to 4.67 µM on Flt-1; 6.82 to 8.76 µM on c-Met; 0.779 to 4.67 µM on AKT; greater than 8.76 µM at IGFR-1; 0.779 to 4.67 µM at PDGFRB; greater than 8.76 µM against Hck-1. The IC50 at FGFR1 was 4.67 to 6.82 µM.

The values above are taken from patent publication US7074789B2, “Kinase inhibitors” (Amgen Inc., priority 1999, dated 2006).
